In patent publication US10039839B2, “Compounds that participate in cooperative binding and uses thereof” (Warp Drive Bio, Inc., priority 2015, dated 2018) one finds IC50 data, which are given here for three compounds.

Each structure is given as a SMILES string. Square brackets hold non-standard residues; d marks the D form. Peptide text beside a SMILES is read from it. MeBmt = C/C=C/C[C@@H](C)[C@@H](O)[C@H](NC)C(=O)O; NMepY = CN[C@@H](Cc1ccc(OP(=O)(O)O)cc1)C(=O)O; NMeF = CN[C@@H](Cc1ccccc1)C(=O)O; NMeL = CN[C@@H](CC(C)C)C(=O)O; NMeV = CN[C@H](C(=O)O)C(C)C; Abu = CC[C@H](N)C(=O)O; Sar = CNCC(=O)O

For orientation: IC50 means the concentration needed to halve the response being measured. A high value points to a need for much substance.

For one assay, the system named is HeLa-Cyclophilin A cells. As to the kind of experiment: Biosensor cell permeability assay, cyclophilin binding compounds. Conditions: 72 hrs. The class given is cell-based. The method, then:
This protocol utilizes a modified FKBP or cyclophilin destabilizing mutant to determine the bioactivity of FKBP binding compounds or cyclophilin binding compounds in whole cell assay.
Plate HeLa-FKBP12 cells (for FKBP binding compounds) or HeLa-Cyclophilin A cells (for cyclophilin binding compounds) and seed overnight at 5 k/well (approximately ˜18 hrs.). Using a multi-channel pipet, take out the old media and add ˜125 ul of new media with compounds. Compounds are diluted using DMEM without Phenol Red, 10% FBS, 1× Sodium Pyruvate, 1× Glutamax. Add 125 ul of media with compound per well.
Cell binding/permeability is calculated in fold-change (Total RFU of treated samples/total RFU of DMSO treated samples or total RFU above background (Total RFU minus total RFU of DMSO treated samples).

A further assay concerns the target T1, Cyclophilin A (Homo sapiens, UniProt P62937).
T1 construct: made in house
The assay is described as follows: biochemical. The class given is binding. The protocol:
This protocol utilizes Perkin Elmers AlphaLISA technology platform to detect cyclosporine analogues by measuring the inhibition of binding of biotinylated Cyclosporin A to FLAG tagged Cyclophilin A.
Add 20 uL of 6 nM Biotinylated CsA working stock to each well of the 96-well plate. Add 1 uL of test compound (100% DMSO) to each well of the plate using the Janus MTD head and P20 tips (except control wells). Add 1 uL of DMSO to negative control wells and 1 uL of 500 uM Cyclosporin A solution to positive control wells. In the dark, add 20 uL of combined Donor/Acceptor beads to each well. Incubate in the dark for 30 minutes at room temperature. […] Incubate in the dark for 60 minutes at room temperature.

T1 sequence (P62937 whole entry, species assumed): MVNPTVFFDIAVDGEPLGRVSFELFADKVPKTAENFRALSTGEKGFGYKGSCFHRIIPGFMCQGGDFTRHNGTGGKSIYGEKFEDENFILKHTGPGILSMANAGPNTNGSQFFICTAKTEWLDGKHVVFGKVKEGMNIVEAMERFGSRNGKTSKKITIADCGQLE

With `C/C=C/C[C@@H](C)[C@@H](O)[C@H]1C(=O)N[C@@H](CC)C(=O)N(C)CC(=O)N(C)[C@@H](Cc2ccccc2)C(=O)N[C@@H](C(C)C)C(=O)N(C)[C@@H](CC(C)C)C(=O)N[C@@H](C)C(=O)N[C@H](C)C(=O)N(C)[C@@H](CC(C)C)C(=O)N(C)[C@@H](CC(C)C)C(=O)N(C)[C@@H](C(C)C)C(=O)N1C` [C36] (cyclo([MeBmt][Abu][Sar][NMeF]V[NMeL]A[dA][NMeL][NMeL][NMeV])), in the assay with HeLa-Cyclophilin A cells, the IC50 is less than 3000 nM. With `C/C=C/C[C@@H](C)[C@@H](O)[C@H]1C(=O)N[C@@H](CC)C(=O)N(C)CC(=O)N(C)[C@@H](C(C)C)C(=O)N[C@@H](C(C)C)C(=O)N(C)[C@@H](CC(C)C)C(=O)N[C@@H](C)C(=O)N[C@H](C)C(=O)N(C)[C@@H](CC(C)C)C(=O)N(C)[C@@H](CC(C)C)C(=O)N(C)[C@@H](C(C)C)C(=O)N1C` [C40] (cyclo([MeBmt][Abu][Sar][NMeV]V[NMeL]A[dA][NMeL][NMeL][NMeV])), the IC50 in the assay with HeLa-Cyclophilin A cells was less than 3000 nM; against Cyclophilin A, less than 2000 nM. Consider `C/C=C/C[C@@H](C)[C@@H](O)[C@H]1C(=O)N[C@@H](CC)C(=O)N(C)CC(=O)N(C)[C@@H](Cc2ccc(OP(=O)(O)O)cc2)C(=O)N[C@@H](C(C)C)C(=O)N(C)[C@@H](CC(C)C)C(=O)N[C@@H](C)C(=O)N[C@H](C)C(=O)N(C)[C@@H](CC(C)C)C(=O)N(C)[C@@H](CC(C)C)C(=O)N(C)[C@@H](C(C)C)C(=O)N1C` [C41] (cyclo([MeBmt][Abu][Sar][NMepY]V[NMeL]A[dA][NMeL][NMeL][NMeV])), for which the IC50 was more than 3000 nM in the assay with HeLa-Cyclophilin A cells and less than 2000 nM at Cyclophilin A.
